Experimental data published in PubChem BioAssay (NCI).
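Abbreviation: GI50, concentration required for 50% inhibition of growth. The concentration for full growth arrest is given as TGI.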

What was measured:
Assay in all cases: inhibition of tumour cell growth, NCI panel, 384-well format
786-0 renal = tested on: 786-0 renal
A498 renal = tested on: A498 renal
A549 NSCLC = tested on: A549 NSCLC
ACHN renal = tested on: ACHN renal
BT-549 breast = tested on: BT-549 breast
CAKI-1 renal = tested on: CAKI-1 renal
CCRF-CEM leukemia = tested on: CCRF-CEM leukemia
COLO 205 colon = tested on: COLO 205 colon
DU-145 prostate = tested on: DU-145 prostate
EKVX NSCLC = tested on: EKVX NSCLC
HCC-2998 colon = tested on: HCC-2998 colon
HCT-15 colon = tested on: HCT-15 colon
HL-60(TB) leukemia = tested on: HL-60(TB) leukemia
HOP-62 NSCLC = tested on: HOP-62 NSCLC
HOP-92 NSCLC = tested on: HOP-92 NSCLC
HS 578T breast = tested on: HS 578T breast
HT29 colon = tested on: HT29 colon
IGROV1 ovarian = tested on: IGROV1 ovarian
K-562 leukemia = tested on: K-562 leukemia
KM12 colon = tested on: KM12 colon
LOX IMVI melanoma = tested on: LOX IMVI melanoma
M14 melanoma = tested on: M14 melanoma
MALME-3M melanoma = tested on: MALME-3M melanoma
MCF7 breast = tested on: MCF7 breast
MDA-MB-231 breast = tested on: MDA-MB-231 breast
MDA-MB-435 melanoma = tested on: MDA-MB-435 melanoma
MDA-MB-468 breast = tested on: MDA-MB-468 breast
MOLT-4 leukemia = tested on: MOLT-4 leukemia
NCI-H226 lung = tested on: NCI-H226 lung
NCI-H23 lung = tested on: NCI-H23 lung
NCI-H322M lung = tested on: NCI-H322M lung
NCI-H460 NSCLC = tested on: NCI-H460 NSCLC
NCI-H522 lung = tested on: NCI-H522 lung
NCI/ADR-RES ovarian = tested on: NCI/ADR-RES ovarian
OVCAR-3 ovarian = tested on: OVCAR-3 ovarian
OVCAR-4 ovarian = tested on: OVCAR-4 ovarian
OVCAR-5 ovarian = tested on: OVCAR-5 ovarian
OVCAR-8 ovarian = tested on: OVCAR-8 ovarian
PC-3 prostate = tested on: PC-3 prostate
RPMI-8226 leukemia = tested on: RPMI-8226 leukemia
RXF 393 renal = tested on: RXF 393 renal
SF-268 CNS = tested on: SF-268 CNS
SF-295 CNS = tested on: SF-295 CNS
SF-539 CNS = tested on: SF-539 CNS
SK-MEL-28 melanoma = tested on: SK-MEL-28 melanoma
SK-MEL-5 melanoma = tested on: SK-MEL-5 melanoma
SK-OV-3 ovarian = tested on: SK-OV-3 ovarian
SN12C renal = tested on: SN12C renal
SNB-19 CNS = tested on: SNB-19 CNS
SNB-75 CNS = tested on: SNB-75 CNS
SR leukemia = tested on: SR leukemia
SW-620 colon = tested on: SW-620 colon
T-47D breast = tested on: T-47D breast
TK-10 renal = tested on: TK-10 renal
UACC-257 melanoma = tested on: UACC-257 melanoma
UACC-62 melanoma = tested on: UACC-62 melanoma
UO-31 renal = tested on: UO-31 renal

## CCc1cc2ncc(CN3CCN(c4ccc(C(=O)NC)nc4)CC3)cc2[nH]c1=O
786-0 renal
  GI50: 72.2 µM
  TGI: > 100 µM
A498 renal
  GI50: > 100 µM
  TGI: > 100 µM
A549 NSCLC
  GI50: 52.6 µM
  TGI: > 100 µM
ACHN renal
  GI50: 70.5 µM
  TGI: > 100 µM
BT-549 breast
  GI50: 29.7 µM
  TGI: > 100 µM
CAKI-1 renal
  GI50: 34.5 µM
  TGI: > 100 µM
CCRF-CEM leukemia
  GI50: 29.5 µM
  TGI: > 100 µM
COLO 205 colon
  GI50: 68.5 µM
  TGI: > 100 µM
DU-145 prostate
  GI50: > 100 µM
  TGI: > 100 µM
EKVX NSCLC
  GI50: 78.6 µM
  TGI: > 100 µM
HCC-2998 colon
  GI50: 20.2 µM
  TGI: > 100 µM
HCT-15 colon
  GI50: 50 µM
  TGI: > 100 µM
HL-60(TB) leukemia
  GI50: 36 µM
  TGI: > 100 µM
HOP-62 NSCLC
  GI50: 26.1 µM
  TGI: > 100 µM
HOP-92 NSCLC
  GI50: 25.9 µM
  TGI: > 100 µM
HS 578T breast
  GI50: 18.9 µM
  TGI: > 100 µM
HT29 colon
  GI50: 80.1 µM
  TGI: > 100 µM
IGROV1 ovarian
  GI50: 60.1 µM
  TGI: > 100 µM
K-562 leukemia
  GI50: 74.6 µM
  TGI: > 100 µM
KM12 colon
  GI50: > 100 µM
  TGI: > 100 µM
LOX IMVI melanoma
  GI50: 23.9 µM
  TGI: > 100 µM
M14 melanoma
  GI50: > 100 µM
  TGI: > 100 µM
MALME-3M melanoma
  GI50: 71.2 µM
  TGI: > 100 µM
MCF7 breast
  GI50: 23.6 µM
  TGI: > 100 µM
MDA-MB-231 breast
  GI50: 30.5 µM
  TGI: > 100 µM
MDA-MB-435 melanoma
  GI50: > 100 µM
  TGI: > 100 µM
MDA-MB-468 breast
  GI50: 3.1 µM
  TGI: 20.9 µM
MOLT-4 leukemia
  GI50: 2.3 µM
  TGI: 26.1 µM
NCI-H226 lung
  GI50: 53.1 µM
  TGI: > 100 µM
NCI-H23 lung
  GI50: 87.2 µM
  TGI: > 100 µM
NCI-H322M lung
  GI50: > 100 µM
  TGI: > 100 µM
NCI-H460 NSCLC
  GI50: 2.5 µM
  TGI: > 100 µM
NCI-H522 lung
  GI50: 48.4 µM
  TGI: > 100 µM
NCI/ADR-RES ovarian
  GI50: > 100 µM
  TGI: > 100 µM
OVCAR-3 ovarian
  GI50: 43.5 µM
  TGI: > 100 µM
OVCAR-4 ovarian
  GI50: 53.9 µM
  TGI: > 100 µM
OVCAR-5 ovarian
  GI50: > 100 µM
  TGI: > 100 µM
OVCAR-8 ovarian
  GI50: 42.1 µM
  TGI: > 100 µM
PC-3 prostate
  GI50: > 100 µM
  TGI: > 100 µM
RPMI-8226 leukemia
  GI50: 3.3 µM
  TGI: 52.4 µM
RXF 393 renal
  GI50: > 100 µM
  TGI: > 100 µM
SF-268 CNS
  GI50: 93.1 µM
  TGI: > 100 µM
SF-295 CNS
  GI50: 71 µM
  TGI: > 100 µM
SF-539 CNS
  GI50: > 100 µM
  TGI: > 100 µM
SK-MEL-28 melanoma
  GI50: > 100 µM
  TGI: > 100 µM
SK-MEL-5 melanoma
  GI50: > 100 µM
  TGI: > 100 µM
SK-OV-3 ovarian
  GI50: > 100 µM
  TGI: > 100 µM
SN12C renal
  GI50: 84 µM
  TGI: > 100 µM
SNB-19 CNS
  GI50: > 100 µM
  TGI: > 100 µM
SNB-75 CNS
  GI50: > 100 µM
  TGI: > 100 µM
SR leukemia
  GI50: 0.271 µM
  TGI: 20.5 µM
SW-620 colon
  GI50: > 100 µM
  TGI: > 100 µM
T-47D breast
  GI50: 22 µM
  TGI: > 100 µM
TK-10 renal
  GI50: > 100 µM
  TGI: > 100 µM
UACC-257 melanoma
  GI50: > 100 µM
  TGI: > 100 µM
UACC-62 melanoma
  GI50: > 100 µM
  TGI: > 100 µM
UO-31 renal
  GI50: > 100 µM
  TGI: > 100 µM
